The source of these data is patent publication US11845714B2, “Process for producing taurine” (Vitaworks IP, LLC, priority 2014, dated 2023).

Each structure is given as a SMILES string.

The conditions of this series: 25% aqueous ammonia at room temperature.

For `NCCS(=O)(=O)O` [Taurine, 2-aminoethanesulfonic acid], the “solubility in 25% aqueous ammonia” value was determined as 36 g in 100 g.
